Like-named read-outs stand apart in the source and are kept apart here.
Legend:
Legionella pneumophilia = assay type: cell-based
[1] = test system: microbiological activity in shower apparatus; assay: Treatment of shower apparatus, microbiological activity / TVC; conditions: solution of around 250-500 ppm
From the text: The fall in TVCs or “kill” of the micro-activity following use of the first biocidal product alone or following a combination of use of the first biocidal product and second acidic sequestering product is similar but the time before significant re-inoculation is extended when the combination of the first and second compositions are used. In areas of high water hardness, the potential for re-inoculation is much higher than in areas of low water hardness and therefore the benefit of using an acidic sequestering product in combination with the biocidal product is much higher.
The biocidial composition of the present invention results in a fall in TVC from a starting level of approximately 10^5 cfu/ml to 20-500 cfu/ml.

Legionella = conditions: cited from earlier work
Mycobacteria = conditions: against Mycobacteria; cited from earlier work
Hepatatis = conditions: against Hepatatis; cited from earlier work
HIV = conditions: against HIV; cited from earlier work
[2] = test system: aerobic counts of shower water; assay: Hadfield office shower head, Petrifilm aerobic count after biocide treatment; conditions: for Mb. Analyses Aerobic: 30 min contact
[3] = test system: yeast and mold counts of shower water; assay: Hadfield office shower head, Petrifilm yeast and mold count after biocide treatment; conditions: 30 min contact
[4] = 0.5% solution, 555 ppm, 8 days (192 hours) since biocide first added, (1) Resting (8 days), 16 °C
[5] = 0.5% solution, 555 ppm, 8 days (192 hours) since biocide first added, (2) Shower running, 10 °C
[6] = 0.5% solution, 555 ppm, 8 days (192 hours) since biocide first added, (3) Shower running, 15 °C
[7] = 0.5% solution, 555 ppm, 8 days (192 hours) since biocide first added, (4) Shower running, 20 °C
[8] = 0.5% solution, 555 ppm, 8 days (192 hours) since biocide first added, (5) Shower running, 25 °C
[9] = 0.5% solution, 555 ppm, 8 days (192 hours) since biocide first added, (6) Shower running, 30 °C
[10] = 0.5% solution, 555 ppm, 8 days (192 hours) since biocide first added, (7) Shower running, 35 °C
[11] = 0.5% solution, 555 ppm, 8 days (192 hours) since biocide first added, (8) Shower running, 40 °C
[12] = 0.5% solution, 555 ppm, 8 days (192 hours) since biocide first added, (9) Shower running - full heat, 41 °C
[13] = 0.5% solution, 565 ppm, 24 hours after biocide addition, (1) Resting, 15 °C
[14] = 0.5% solution, 565 ppm, 24 hours after biocide addition, (2) Shower running, 10 °C
[15] = 0.5% solution, 565 ppm, 24 hours after biocide addition, (3) Shower running, 15 °C
[16] = 0.5% solution, 565 ppm, 24 hours after biocide addition, (4) Shower running, 20 °C
[17] = 0.5% solution, 565 ppm, 24 hours after biocide addition, (5) Shower running, 25 °C
[18] = 0.5% solution, 565 ppm, 24 hours after biocide addition, (6) Shower running, 30 °C
[19] = 0.5% solution, 565 ppm, 24 hours after biocide addition, (7) Shower running, 35 °C
[20] = 0.5% solution, 565 ppm, 24 hours after biocide addition, (8) Shower running, 40 °C
[21] = 0.5% solution, 565 ppm, 24 hours after biocide addition, (9) Shower running, 41 °C
[22] = 0.5% solution, 565 ppm, 48 hours after biocide addition, (1) Resting, 16 °C
[23] = 0.5% solution, 565 ppm, 48 hours after biocide addition, (2) Shower running, 10 °C
[24] = 0.5% solution, 565 ppm, 48 hours after biocide addition, (3) Shower running, 15 °C
[25] = 0.5% solution, 565 ppm, 48 hours after biocide addition, (4) Shower running, 20 °C
[26] = 0.5% solution, 565 ppm, 48 hours after biocide addition, (5) Shower running, 25 °C
[27] = 0.5% solution, 565 ppm, 48 hours after biocide addition, (6) Shower running, 30 °C
[28] = 0.5% solution, 565 ppm, 48 hours after biocide addition, (7) Shower running, 35 °C
[29] = 0.5% solution, 565 ppm, 48 hours after biocide addition, (8) Shower running, 40 °C
[30] = 0.5% solution, 565 ppm, 48 hours after biocide addition, (9) Shower running, 41 °C
[31] = 0.05% solution, 5 ppm, 24 hours after biocide addition, (1) Resting, 18 °C
[32] = 0.05% solution, 5 ppm, 24 hours after biocide addition, (2) Shower running, 10 °C
[33] = 0.05% solution, 5 ppm, 24 hours after biocide addition, (3) Shower running, 15 °C
[34] = 0.05% solution, 5 ppm, 24 hours after biocide addition, (4) Shower running, 20 °C
[35] = 0.05% solution, 5 ppm, 24 hours after biocide addition, (5) Shower running, 25 °C
[36] = 0.05% solution, 5 ppm, 24 hours after biocide addition, (6) Shower running, 30 °C
[37] = 0.05% solution, 5 ppm, 24 hours after biocide addition, (7) Shower running, 35 °C
[38] = 0.05% solution, 5 ppm, 24 hours after biocide addition, (8) Shower running, 40 °C
[39] = 0.05% solution, 5 ppm, 24 hours after biocide addition, (9) Shower running - full heat, 43 °C
[40] = 0.05% solution, 5 ppm, 48 hours after biocide addition, (1) Resting, 17 °C
[41] = 0.05% solution, 5 ppm, 48 hours after biocide addition, (2) Shower running, 10 °C
[42] = 0.05% solution, 5 ppm, 48 hours after biocide addition, (3) Shower running, 15 °C
[43] = 0.05% solution, 5 ppm, 48 hours after biocide addition, (4) Shower running, 20 °C
[44] = 0.05% solution, 5 ppm, 48 hours after biocide addition, (5) Shower running, 25 °C
[45] = 0.05% solution, 5 ppm, 48 hours after biocide addition, (6) Shower running, 30 °C
[46] = 0.05% solution, 5 ppm, 48 hours after biocide addition, (7) Shower running, 35 °C
[47] = 0.05% solution, 5 ppm, 48 hours after biocide addition, (8) Shower running, 40 °C
[48] = 0.05% solution, 5 ppm, 48 hours after biocide addition, (9) Shower running - full heat, 42 °C

CCCCCCCCCCCCN(CCCN)CCCN [Lonzabac 12.100, N-(3-aminopropyl)-N-dodecylpropane-1,3-diamine]
Biocidal effect (Legionella pneumophilia; 100 ppm biocidal active, contact time 5 minutes): Biocidal
Biocidal effect (Legionella pneumophilia; 100 ppm biocidal active, contact time 10 minutes): Biocidal
Biocidal effect (Legionella pneumophilia; 100 ppm biocidal active, contact time 15 minutes): Biocidal
Biocidal effect (Legionella pneumophilia; 100 ppm biocidal active, contact time 30 minutes): Biocidal
Biocidal effect (Legionella pneumophilia; 200 ppm biocidal active, contact time 5 minutes): Biocidal
Biocidal effect (Legionella pneumophilia; 200 ppm biocidal active, contact time 10 minutes): Biocidal
Biocidal effect (Legionella pneumophilia; 200 ppm biocidal active, contact time 15 minutes): Biocidal
Biocidal effect (Legionella pneumophilia; 200 ppm biocidal active, contact time 30 minutes): Biocidal
Biocidal effect (Legionella pneumophilia; 300 ppm biocidal active, contact time 5 minutes): Biocidal
Biocidal effect (Legionella pneumophilia; 300 ppm biocidal active, contact time 10 minutes): Biocidal
Biocidal effect (Legionella pneumophilia; 300 ppm biocidal active, contact time 15 minutes): Biocidal
Biocidal effect (Legionella pneumophilia; 300 ppm biocidal active, contact time 30 minutes): Biocidal
Biocidal effect (Legionella pneumophilia; 500 ppm biocidal active, contact time 5 minutes): Biocidal
Biocidal effect (Legionella pneumophilia; 500 ppm biocidal active, contact time 10 minutes): Biocidal
Biocidal effect (Legionella pneumophilia; 500 ppm biocidal active, contact time 15 minutes): Biocidal
Biocidal effect (Legionella pneumophilia; 500 ppm biocidal active, contact time 30 minutes): Biocidal
biocidal effect, summary of Table A (Legionella pneumophilia; all concentrations (100-500 ppm), contact time as short as 5 minutes): biocidal to Legionella at all concentrations
sterilisation of shower compared with 5 parts per million of BCDMH (L8 recommendations) [1]: more effective sterilisation was achieved for a longer period
concentration down to which effective (Legionella): ≥ 0.05%
concentration down to which effective (Mycobacteria): ≥ 0.05%
concentration down to which effective (Hepatatis): ≥ 0.05%
concentration down to which effective (HIV): ≥ 0.05%
Mb. Analyses Aerobic [2, 4]: 10^5 cols/ml
Mb. Analyses Aerobic [2, 5]: 1 cols/ml
Mb. Analyses Aerobic [2, 6]: 3 cols/ml
Mb. Analyses Aerobic [2, 7]: No growth
Mb. Analyses Aerobic [2, 8]: No growth
Mb. Analyses Aerobic [2, 9]: 9 cols/ml
Mb. Analyses Aerobic [2, 10]: 1 cols/ml
Mb. Analyses Aerobic [2, 11]: No growth
Mb. Analyses Aerobic [2, 12]: 2 cols/ml
Mb. Analyses Aerobic [2, 13]: 60 cols/ml
Mb. Analyses Aerobic [2, 14]: No growth
Mb. Analyses Aerobic [2, 15]: No growth
Mb. Analyses Aerobic [2, 16]: No growth
Mb. Analyses Aerobic [2, 17]: No growth
Mb. Analyses Aerobic [2, 18]: 1 cols/ml
Mb. Analyses Aerobic [2, 19]: No growth
Mb. Analyses Aerobic [2, 20]: 2 cols/ml
Mb. Analyses Aerobic [2, 21]: No growth
Mb. Analyses Aerobic [2, 22]: 520 cols/ml
Mb. Analyses Aerobic [2, 23]: 8 cols/ml
Mb. Analyses Aerobic [2, 24]: 2 cols/ml
Mb. Analyses Aerobic [2, 25]: No growth
Mb. Analyses Aerobic [2, 26]: No growth
Mb. Analyses Aerobic [2, 27]: No growth
Mb. Analyses Aerobic [2, 28]: No growth
Mb. Analyses Aerobic [2, 29]: 1 cols/ml
Mb. Analyses Aerobic [2, 30]: No growth
microbiological activity 8 days after treatment (Table 2) ([2]; before inclusion of wetting agents and other functional components): re-established itself
Mb. Analyses Yeast/Mold [3, 4]: No growth
Mb. Analyses Yeast/Mold [3, 5]: No growth
Mb. Analyses Yeast/Mold [3, 6]: No growth
Mb. Analyses Yeast/Mold [3, 7]: No growth
Mb. Analyses Yeast/Mold [3, 8]: No growth
Mb. Analyses Yeast/Mold [3, 9]: 1 yeast cols/ml
Mb. Analyses Yeast/Mold [3, 10]: No growth
Mb. Analyses Yeast/Mold [3, 11]: No growth
Mb. Analyses Yeast/Mold [3, 12]: 1 yeast cols/ml
Mb. Analyses Yeast/Mold [3, 13]: No growth
Mb. Analyses Yeast/Mold [3, 14]: No growth
Mb. Analyses Yeast/Mold [3, 15]: No growth
Mb. Analyses Yeast/Mold [3, 16]: No growth
Mb. Analyses Yeast/Mold [3, 17]: No growth
Mb. Analyses Yeast/Mold [3, 18]: No growth
Mb. Analyses Yeast/Mold [3, 19]: No growth
Mb. Analyses Yeast/Mold [3, 20]: No growth
Mb. Analyses Yeast/Mold [3, 21]: No growth
Mb. Analyses Yeast/Mold [3, 22]: No growth
Mb. Analyses Yeast/Mold [3, 23]: No growth
Mb. Analyses Yeast/Mold [3, 24]: No growth
Mb. Analyses Yeast/Mold [3, 25]: No growth
Mb. Analyses Yeast/Mold [3, 26]: No growth
Mb. Analyses Yeast/Mold [3, 27]: No growth
Mb. Analyses Yeast/Mold [3, 28]: No growth
Mb. Analyses Yeast/Mold [3, 29]: No growth
Mb. Analyses Yeast/Mold [3, 30]: No growth

CC1(C)C(=O)N(Cl)C(=O)N1Br [Omnia-Stat SP, 1-Bromo-3-chloro-5,5-dimethylhydantoin, reference compound]
Mb. Analyses Aerobic [2, 31]: 480 cols/ml
Mb. Analyses Aerobic [2, 32]: No growth
Mb. Analyses Aerobic [2, 33]: 1 cols/ml
Mb. Analyses Aerobic [2, 34]: 5 cols/ml
Mb. Analyses Aerobic [2, 35]: 10 cols/ml
Mb. Analyses Aerobic [2, 36]: 5 cols/ml
Mb. Analyses Aerobic [2, 37]: 6 cols/ml
Mb. Analyses Aerobic [2, 38]: No growth
Mb. Analyses Aerobic [2, 39]: No growth
Mb. Analyses Aerobic [2, 40]: 2600 cols/ml
Mb. Analyses Aerobic [2, 41]: 3 cols/ml
Mb. Analyses Aerobic [2, 42]: 3 cols/ml
Mb. Analyses Aerobic [2, 43]: 5 cols/ml
Mb. Analyses Aerobic [2, 44]: 9 cols/ml
Mb. Analyses Aerobic [2, 45]: 2 cols/ml
Mb. Analyses Aerobic [2, 46]: 10 cols/ml
Mb. Analyses Aerobic [2, 47]: 6 cols/ml
Mb. Analyses Aerobic [2, 48]: No growth
microbiological recovery after two days compared with the basic product (Table 3) ([2]; shower after 19 days resting, 5 ppm): considerably greater
Mb. Analyses Yeast/Mold [3, 31]: No growth
Mb. Analyses Yeast/Mold [3, 32]: No growth
Mb. Analyses Yeast/Mold [3, 33]: No growth
Mb. Analyses Yeast/Mold [3, 34]: 4 yeast cols/ml
Mb. Analyses Yeast/Mold [3, 35]: 7 yeast cols/ml
Mb. Analyses Yeast/Mold [3, 36]: 3 yeast cols/ml
Mb. Analyses Yeast/Mold [3, 37]: 5 yeast cols/ml
Mb. Analyses Yeast/Mold [3, 38]: No growth
Mb. Analyses Yeast/Mold [3, 39]: No growth
Mb. Analyses Yeast/Mold [3, 40]: 9 yeast cols/ml
Mb. Analyses Yeast/Mold [3, 41]: 8 yeast cols/ml
Mb. Analyses Yeast/Mold [3, 42]: 6 yeast cols/ml
Mb. Analyses Yeast/Mold [3, 43]: 19 yeast cols/ml
Mb. Analyses Yeast/Mold [3, 44]: No growth
Mb. Analyses Yeast/Mold [3, 45]: 6 yeast cols/ml
Mb. Analyses Yeast/Mold [3, 46]: No growth
Mb. Analyses Yeast/Mold [3, 47]: 10 yeast cols/ml
Mb. Analyses Yeast/Mold [3, 48]: 5 yeast cols/ml

Source: US8894927B2, “Shower sterilisation system and method of use thereof” (Omnia-Klenz Ltd., priority 2010, dated 2014)
